Key:
SKH-1 mice [1] = experiment: Skinfold thickness (edema) after acute UV-B exposure of 360 mJ/cm2; type: in vivo; settings: FIG. 1
Experimental: UVB Acute exposure protocols were used: Mice underwent a single exposure of 360 mJ/cm2. The study was conducted at 24 hours after exposure. This protocol was used to evaluate the photoprotective effect of the compounds studied. With the same acute-phase protocol mice from all groups were irradiated. Subsequently mice remained in the animal storage area for a week to see the evolution of the inflammatory response and edema. For the UVB exposure studies (chronic or acute) a topical administration to the back of the mouse was conducted. The commercial sunscreens were applied directly on the mouse. The polyphenols in the study were administered in a liposomal preparation diluted 1:1 with Carbopol polymer which will be the vehicle for these liposomes. Each polyphenol dose administered was 10 μmol/mouse, as free acid. • 1. Edema formation: skinfold thickness was determined with a caliper 24 hours after the first exposure. • 2. Study of the thickness of the epidermis after exposure to acute irradiation (360 mj/cm^2 24 h hours and 7 days after irradiation). • 3. Histological studies: measuring, in the pictures obtained from histological sections, the thickness of the epidermis. With the purpose of assessing the effects of the photoprotective compounds studied, female mice SKH-1 of between 6-8 weeks old were subjected to a single exposure of 360 mJ/cm. For the ultraviolet B (UVB) irradiation exposure, a camera specifically prepared, available at our laboratory was used (Crosslinker; Bio-Link BLX 254) equipped with 5 tubes that produce 80% of the UVB radiation, with a maximum emission of 312 nm. The two protocols of UV-B exposure used were: • Intense exposure after a single exposure of 360 mJ/cm^2. The study was carried out 24 hours after the exposure. This protocol was used to assess the photoprotective effects of the compounds studied. • Intense exposure after a single exposure of 360 mJ/cm^2. The study was carried out 1 week after the exposure. The mice were kept in the shed for a week to observe the evolution of the inflammatory and edematous response. As reference, several commercial photoprotective products were used ([…] Heliocare). The reference compounds as well as the products object of this study, were applied on the back of the mice for 20 minutes after or 20 minutes before the irradiation with UV-B, to determine if the reaction observed was due to an effect of the solar filter or not. […] The skinfold was measured by making a fold on the skin from the back of the mice, from the axillae to the hips; the fold was measured with a vernier caliper. The increase in the fold was calculated by the difference between the initial point, before the effects of the reaction, and the thickness in each point.

SKH-1 mice [2] = experiment: Anatomopathological study of the skin after chronic exposure to UV-B; type: in vivo; set-up: key to Stroma: Parakeratosis: (+) light; (+++) serious; settings: after 30 weeks chronic UV-B 180 mJ/cm2
Experimental: Histochemical techniques were used to study the skin tissues of the different procedures, at a microscopic level.
The tissues were fixed in 4% formaldehyde in PBS over 24 h at 22° C. After the tissues were fixed, they had to be dehydrated in large amounts of ethanol and placed in a hydrophobic and xylene mixture to allow the paraffin to penetrate the tissues to provide sufficient consistency for slicing them thinly in a microtome.
The samples in paraffin were processed with the microtome obtaining slices of about 5-10 μm. The samples were spread over a drop of gelatin at 37° C. and were collected in gelatinized slides.
The protocol used for staining the samples was: • 1. Incubation with Mayer's Hematoxylin for 10-15 minutes. • 2. Wash under running water until bluish. • 3. Incubate with Eosin (1%) for 2-4 minutes. • 4. Eliminate the remaining eosin in ethanol 70° • 5. Dehydration. • 6. Rinse with xylol for 3 minutes. • 7. Let the trays dry out on the stove at 37°.
In relation to the histopathological exam of the tumors induced by chronic irradiation to UV in the SKH1 mice, it was confirmed that the treatment with UV-B produced a strong acanthosis due primarily to the inflammatory process; this gave way to the first signs of tumors, mostly of carcinoma type and not melanoma.
Both the reference compounds and the ones subject of this study (10 μmoles/mouse of polyphenols, or 200 μl of each photoprotector) were applied to the back of the mice for 20 minutes prior to their exposure to UV-B. Medium of groups of 20 mice. Every parameter was measured according to the degree of seriousness (+) light-(+++) serious.

SKH-1 mice [3] = experiment: Thickness of the epidermis after acute UV-B exposure of 360 mJ/cm2; type: in vivo; settings: FIG. 2, versus group treated only with UV-B
Experimental: UVB Acute exposure protocols were used: Mice underwent a single exposure of 360 mJ/cm2. The study was conducted at 24 hours after exposure. This protocol was used to evaluate the photoprotective effect of the compounds studied. With the same acute-phase protocol mice from all groups were irradiated. Subsequently mice remained in the animal storage area for a week to see the evolution of the inflammatory response and edema. • 1. Edema formation: skinfold thickness was determined with a caliper 24 hours after the first exposure. • 2. Study of the thickness of the epidermis after exposure to acute irradiation (360 mj/cm^2 24 h hours and 7 days after irradiation). • 3. Histological studies: measuring, in the pictures obtained from histological sections, the thickness of the epidermis. For studies of acute exposure skin samples were taken from the back of the mouse. These samples were fixed with 4% paraformaldehyde (24 hours) and embedded in paraffin. Following cutting the samples were stained with hematoxylin and eosin. The two protocols of UV-B exposure used were: • Intense exposure after a single exposure of 360 mJ/cm^2. The study was carried out 24 hours after the exposure. This protocol was used to assess the photoprotective effects of the compounds studied. • Intense exposure after a single exposure of 360 mJ/cm^2. The study was carried out 1 week after the exposure. The mice were kept in the shed for a week to observe the evolution of the inflammatory and edematous response. At 24 hours or 1 week after the administration of the different treatments the mice were sacrificed and their skin fixed with 4% PFA. To measure the thickness of the epidermis to evaluate possible hyperplasia, a computer program was used, Image J, calibrated with the assistance of a Neubauer camera which allowed the measuring of the epidermis. Results obtained were statistically analyzed by ANOVA and contrasted by the Tukey test and grouped according to the significant differences. […] Therefore PTER alone could be used efficiently in the prevention of skin diseases, injuries or damages induced by ultraviolet B radiation. The evaluation of skin thickness was carried out by using computer software (IMAGE J). Results obtained by ANOVA were contrasted by the Tukey test and grouped according to the significant differences. […] Therefore PTER separately could be used efficiently in the prevention of skin diseases, damages or injuries induced by ultraviolet B radiation.

[4] = Absorption spectrum of polyphenols (mechanical filter capacity); type: physicochemical; settings: 1 mM in pure ethanol, 200-800 nm
Experimental: A solution of 1 mM of each polyphenol was prepared (PTER, Resveratrol and QUER) in absolute ethanol (HPLS quality; Quima) and the absorption spectrum was studied between 200 and 800 nm using a Multiskan Spectrum (ThermoScientific).
With the purpose of studying the capacity of the polyphenols used in this study, we decided to evaluate the absorption of light throughout the ultraviolet light spectrum as shown in FIG. 13.

[5] = Asensi et al. 2002; cited from earlier work
SKH-1 mice [6] = experiment: Experimental psoriasis induced by TPA; type: in vivo
Experimental: For the induction of psoriasis, the agent “12-O-tetradecanoylphorbol-13 acetate” (TPA) was used.
Since our objective was to assess the progress of the lesions caused by psoriasis in combination with the use of polyphenols, a model of continuous exposure and a weaker concentration of TPA were used, on a daily dose of 2 nmoles of TPA over a period of a week, which allowed us to observe the progress of the psoriasis.
The induction was performed with 2 nmol TPA/mouse on an area of 1 cm^2, applying 10 μL of the 200 μM solution in acetone. This application protocol was carried out taking into account that when applying 20 μL as stated in the model, the volume increased considerably and it lost its concentration, therefore it was decided to make it more concentrated.
As a standard treatment, Dexamethasone was used, (from Sigma Solution 25 mM in acetone). The administration of the standard treatment and the products to be tested were given 30 minutes prior to the application of TPA, both beginning on the same day.
The groups, of 6 mice, for this assessment were: • Not treated. • Reference compound: 0.5 μmoles of Dexamethasone (200 μL of one solution 25 mM in acetone). • Medium: 200 μl of vacuumed Liposomes. • Resveratrol: 200 μL of Resveratrol Liposomes (10 μmol in total). • PTER: 200 μL of PTER Liposomes (10 μmol in total). • QUER: 200 μL of QUER Liposomes (10 μmol in total). • PTER+QUER:: 200 μL of PTER Liposomes+QUER (10 μmol in total).
At 24 hours (day 7) after the last administration of the different treatments and TPA, 3 mice from each group were sacrificed and their skin fixed with 4% PFA. The remaining mice were kept under the treatment with no exposure to TPA, to verify if the skin recovered faster on the treatment than on its own. At 24 hours (day 9) after the last administration of the different treatments the rest of the mice were sacrificed and their skin fixed with 4% PFA.
The flaky aspect of the skin was quantified in a scale of 0-3, being 0, nothing; 1, mild; 2, moderate; 3, severe.

mice = experiment: Skinfold after continuous administration of treatments (side effects on skin); type: in vivo; settings: daily for 6 consecutive days; 10 μmoles/mouse polyphenols, 0.5 μmoles/mouse dexamethasone
Experimental: FIG. 17. […] The application of the treatments 10 μmoles/mouse of polyphenols and 0.5 μmoles/mouse of dexamethasone was performed daily on a third of the back of the mice for 6 consecutive days. The skinfold was measured with the help of a vernier caliper.*p>0.001 with regards to the control. ANOVA followed by a Tukey test.
Prior to evaluating the results of different treatments on different models of dermatitis, the possible side effects of continues administration of polyphenols on the skin of the mice had to be evaluated as shown in FIG. 17. For this purpose, the dose for this daily evaluation was administered over 6 consecutive days.

| SMILES | formation of the edema (thickness of the skin) after severe UV-B exposure (SKH-1 mice [1]) | Tumor (no/mouse × group) (SKH-1 mice [2]; Table 4, applied 20 min prior) | Stroma: Parakeratosis (SKH-1 mice [2]; degree of seriousness) | thickness of the epidermis 24 hours after irradiation (before or after application) (SKH-1 mice [3]) | absorption of light, range of maximum absorption [4] | bioavailability [5] | increase of skinfold throughout the procedure (SKH-1 mice [6]; FIG. 23, 6 consecutive days, treatment 30 min prior to 2 nmol TPA) | increase in the skinfold 24 hours after the first administration of TPA (SKH-1 mice [6]; FIG. 24, treatment 30 min prior to 2 nmol TPA) | histological analysis of the lesions (SKH-1 mice [6]; FIG. 28, hematoxylin-eosin, TPA daily over 7 days) | skinfold / structure of the skin after continuous administration (mice) |
| --- | --- | --- | --- | --- | --- | --- | --- | --- | --- | --- |
| Oc1ccc(/C=C/c2cc(O)cc(O)c2)cc1 [RESV, 3,4′,5-trihydroxy-trans-stilbene, reference compound] | the formation of the edema was reduced | 3.8 | + | good photoprotection role but not as a repairer | peaks or maximum absorption in the range of Ultraviolet B | low bioavailability | the evolution was similar with an increase in the formation of edema | did not produce any effect on the increase of the skinfold in comparison to the TPA group | resembles more the group treated with TPA, than the group with PTER |  |
| C[C@@H]1C[C@H]2[C@@H]3CCC4=CC(=O)C=C[C@]4(C)[C@@]3(F)[C@@H](O)C[C@]2(C)[C@@]1(O)C(=O)CO [dexamethasone] |  |  |  |  |  |  |  |  |  | did have side effects on the structure of the skin |
